IC50 data for four compounds are collected here from article PMC11877502, “Cytotoxic Stilbenoids, Hetero- and Homodimers of Homoisoflavonoids from Prospero autumnale” (Journal of Natural Products, 2025).

Where only a bound is given, the exact number is not on record here.

One assay concerns LoVo. The assay can be described thus: MTS cytotoxicity assay. It is filed as cell-based. The following applies: Homo sapiens, 48 h, triplicate, read-out: IC50 ± SEM LoVo. The protocol:
(§1) Stock solutions of extracts and compounds were prepared by dissolving in DMSO (Sigma-Aldrich, no. D2650) at the concentrations of 100 mg/mL and 100 mM for extracts and compounds, respectively. […] Untreated cells were used as a control, while plain culture medium was used as a blank. Viability was determined with MTS Assay (Abcam #ab197010) according to the manufacturer’s instructions. Absorbance at 490 nm was measured with a spectrophotometer (Epoch, BioTek Instruments). Relative viability ratios were calculated with the equation given below, and IC50 values were determined in GraphPad Prism (version 8.0). [drawing 2]
On the technique in general: Formazan colour is commonly taken as a measure of viable cells.
For the compound `COc1cc(/C=C/c2cc(O)c(C)c(O)c2)ccc1O` [Compound 3, scillabene A], the IC50 is 83.4 ± 3.9 µM.

As to `COc1c(O)c(OC)c2c(c1O)OC[C@@H](Cc1ccc(O)cc1)C2=O` [Compound 7, 3R-(4′-hydroxybenzyl)-6,8-dihydroxy-5,7-dimethoxy-4-chromanone], the IC50 was more than 100 µM.

Consider `COc1ccc(C(c2c(O)cc3c(c2O)C(=O)/C(=C/c2ccc(O)cc2)CO3)c2coc3cc(O)cc(O)c3c2=O)cc1` (stereo not drawn) [Compound 9, prosperin B], for which the IC50 was more than 100 µM.

For `COc1cccc2c1C(=O)c1c(O)c3c(c(O)c1C2=O)C[C@@](O)(C(=O)CO)C[C@@H]3O[C@H]1C[C@H](N)[C@H](O)[C@H](C)O1` [doxorubicin, reference compound], the IC50 is 2.4 ± 0.2 µM.

A further assay deals with MDA-MB-231. The assay can be described thus: MTS cytotoxicity assay. The class given is cell-based. To be noted: Homo sapiens, 48 h, triplicate, read-out: IC50 ± SEM MDA-MB-231. The protocol: as §1
With `COc1cc(/C=C/c2cc(O)c(C)c(O)c2)ccc1O` [Compound 3, scillabene A], the IC50 is more than 100 µM.

For the compound `COc1c(O)c(OC)c2c(c1O)OC[C@@H](Cc1ccc(O)cc1)C2=O` [Compound 7, 3R-(4′-hydroxybenzyl)-6,8-dihydroxy-5,7-dimethoxy-4-chromanone], the IC50 was more than 100 µM.

Turning to `COc1ccc(C(c2c(O)cc3c(c2O)C(=O)/C(=C/c2ccc(O)cc2)CO3)c2coc3cc(O)cc(O)c3c2=O)cc1` (stereo not drawn) [Compound 9, prosperin B], the IC50 is more than 100 µM.

With `COc1cccc2c1C(=O)c1c(O)c3c(c(O)c1C2=O)C[C@@](O)(C(=O)CO)C[C@@H]3O[C@H]1C[C@H](N)[C@H](O)[C@H](C)O1` [doxorubicin, reference compound], the IC50 was found to be 2.3 ± 0.3 µM.

The same assay, now with this note: Homo sapiens, 48 h, triplicate, read-out: IC50 ± SEM MDA-MB-231, extract/fraction.
As to `COc1cccc2c1C(=O)c1c(O)c3c(c(O)c1C2=O)C[C@@](O)(C(=O)CO)C[C@@H]3O[C@H]1C[C@H](N)[C@H](O)[C@H](C)O1` [doxorubicin, reference compound], the IC50 is 2.33 ± 0.33 µg/mL.

The test system of another assay is PC3. The assay can be described thus: MTS cytotoxicity assay. It is filed as cell-based. The following applies: Homo sapiens, PC-3, 48 h, triplicate, read-out: IC50 ± SEM PC3. The protocol:
as §1
Turning to `COc1cc(/C=C/c2cc(O)c(C)c(O)c2)ccc1O` [Compound 3, scillabene A], the IC50 is more than 100 µM.

For `COc1c(O)c(OC)c2c(c1O)OC[C@@H](Cc1ccc(O)cc1)C2=O` [Compound 7, 3R-(4′-hydroxybenzyl)-6,8-dihydroxy-5,7-dimethoxy-4-chromanone], the IC50 was more than 100 µM.

On to `COc1ccc(C(c2c(O)cc3c(c2O)C(=O)/C(=C/c2ccc(O)cc2)CO3)c2coc3cc(O)cc(O)c3c2=O)cc1` (stereo not drawn) [Compound 9, prosperin B], for which the IC50 is more than 100 µM.

For `COc1cccc2c1C(=O)c1c(O)c3c(c(O)c1C2=O)C[C@@](O)(C(=O)CO)C[C@@H]3O[C@H]1C[C@H](N)[C@H](O)[C@H](C)O1` [doxorubicin, reference compound], the IC50 was 0.9 ± 0.1 µM.

Still in this assay, the particulars now being: Homo sapiens, PC-3, 48 h, triplicate, read-out: IC50 ± SEM PC3, extract/fraction.
Take `COc1cccc2c1C(=O)c1c(O)c3c(c(O)c1C2=O)C[C@@](O)(C(=O)CO)C[C@@H]3O[C@H]1C[C@H](N)[C@H](O)[C@H](C)O1` [doxorubicin, reference compound]: the IC50 is 0.88 ± 0.08 µg/mL.

Another assay concerns HEPG2. The assay can be described thus: MTS cytotoxicity assay. It is filed as cell-based. The following applies: Homo sapiens, 48 h, triplicate, read-out: IC50 ± SEM HEPG2. As for the experimental part: as §1
On to `COc1cc(/C=C/c2cc(O)c(C)c(O)c2)ccc1O` [Compound 3, scillabene A], for which the IC50 is more than 100 µM.

Regarding `COc1c(O)c(OC)c2c(c1O)OC[C@@H](Cc1ccc(O)cc1)C2=O` [Compound 7, 3R-(4′-hydroxybenzyl)-6,8-dihydroxy-5,7-dimethoxy-4-chromanone], the IC50 is more than 100 µM.

`COc1ccc(C(c2c(O)cc3c(c2O)C(=O)/C(=C/c2ccc(O)cc2)CO3)c2coc3cc(O)cc(O)c3c2=O)cc1` (stereo not drawn) [Compound 9, prosperin B]: the IC50 was more than 100 µM.

The subject of another assay is MCF7. In words: MTS cytotoxicity assay. It is filed as cell-based. To be noted: Homo sapiens, 48 h, triplicate, read-out: IC50 ± SEM MCF7. As for the experimental part: as §1
`COc1cc(/C=C/c2cc(O)c(C)c(O)c2)ccc1O` [Compound 3, scillabene A]: the IC50 was more than 100 µM.

Turning to `COc1c(O)c(OC)c2c(c1O)OC[C@@H](Cc1ccc(O)cc1)C2=O` [Compound 7, 3R-(4′-hydroxybenzyl)-6,8-dihydroxy-5,7-dimethoxy-4-chromanone], the IC50 was more than 100 µM.

As to `COc1ccc(C(c2c(O)cc3c(c2O)C(=O)/C(=C/c2ccc(O)cc2)CO3)c2coc3cc(O)cc(O)c3c2=O)cc1` (stereo not drawn) [Compound 9, prosperin B], the IC50 was more than 100 µM.

On to `COc1cccc2c1C(=O)c1c(O)c3c(c(O)c1C2=O)C[C@@](O)(C(=O)CO)C[C@@H]3O[C@H]1C[C@H](N)[C@H](O)[C@H](C)O1` [doxorubicin, reference compound], for which the IC50 is 2.3 ± 0.3 µM.

Staying with this assay, now noted: Homo sapiens, 48 h, triplicate, read-out: IC50 ± SEM MCF7, extract/fraction.
Take `COc1cccc2c1C(=O)c1c(O)c3c(c(O)c1C2=O)C[C@@](O)(C(=O)CO)C[C@@H]3O[C@H]1C[C@H](N)[C@H](O)[C@H](C)O1` [doxorubicin, reference compound]: the IC50 is 2.32 ± 0.28 µg/mL.

The subject of a further assay is DU145. In words: MTS cytotoxicity assay. It is filed as cell-based. To be noted: Homo sapiens, DU-145, 48 h, triplicate, read-out: IC50 ± SEM DU145. The protocol:
as §1
For `COc1cc(/C=C/c2cc(O)c(C)c(O)c2)ccc1O` [Compound 3, scillabene A], the IC50 is more than 100 µM.

On to `COc1c(O)c(OC)c2c(c1O)OC[C@@H](Cc1ccc(O)cc1)C2=O` [Compound 7, 3R-(4′-hydroxybenzyl)-6,8-dihydroxy-5,7-dimethoxy-4-chromanone], for which the IC50 was more than 100 µM.

Consider `COc1ccc(C(c2c(O)cc3c(c2O)C(=O)/C(=C/c2ccc(O)cc2)CO3)c2coc3cc(O)cc(O)c3c2=O)cc1` (stereo not drawn) [Compound 9, prosperin B], for which the IC50 was more than 100 µM.

With `COc1cccc2c1C(=O)c1c(O)c3c(c(O)c1C2=O)C[C@@](O)(C(=O)CO)C[C@@H]3O[C@H]1C[C@H](N)[C@H](O)[C@H](C)O1` [doxorubicin, reference compound], the IC50 came out at 5.9 ± 0.4 µM.

The same assay, now with this note: Homo sapiens, DU-145, 48 h, triplicate, read-out: IC50 ± SEM DU145, extract/fraction.
Regarding `COc1cccc2c1C(=O)c1c(O)c3c(c(O)c1C2=O)C[C@@](O)(C(=O)CO)C[C@@H]3O[C@H]1C[C@H](N)[C@H](O)[C@H](C)O1` [doxorubicin, reference compound], the IC50 is 5.93 ± 0.38 µg/mL.

The subject of the next assay is HCT116. In words: MTS cytotoxicity assay. The class given is cell-based. To be noted: Homo sapiens, HCT-116, 48 h, triplicate, read-out: IC50 ± SEM HCT116. The protocol:
as §1
As to `COc1cc(/C=C/c2cc(O)c(C)c(O)c2)ccc1O` [Compound 3, scillabene A], the IC50 was more than 100 µM.

Turning to `COc1c(O)c(OC)c2c(c1O)OC[C@@H](Cc1ccc(O)cc1)C2=O` [Compound 7, 3R-(4′-hydroxybenzyl)-6,8-dihydroxy-5,7-dimethoxy-4-chromanone], the IC50 was more than 100 µM.

Turning to `COc1ccc(C(c2c(O)cc3c(c2O)C(=O)/C(=C/c2ccc(O)cc2)CO3)c2coc3cc(O)cc(O)c3c2=O)cc1` (stereo not drawn) [Compound 9, prosperin B], the IC50 is 75.8 ± 8 µM.

For the compound `COc1cccc2c1C(=O)c1c(O)c3c(c(O)c1C2=O)C[C@@](O)(C(=O)CO)C[C@@H]3O[C@H]1C[C@H](N)[C@H](O)[C@H](C)O1` [doxorubicin, reference compound], the IC50 was determined as 0.9 ± 0.1 µM.

The assay is the same for the next values; noted with them: Homo sapiens, HCT-116, 48 h, triplicate, read-out: IC50 ± SEM HCT116, extract/fraction.
On to `COc1cccc2c1C(=O)c1c(O)c3c(c(O)c1C2=O)C[C@@](O)(C(=O)CO)C[C@@H]3O[C@H]1C[C@H](N)[C@H](O)[C@H](C)O1` [doxorubicin, reference compound], for which the IC50 was determined as 0.86 ± 0.14 µg/mL.

For the next assay, the system named is HEP3B. In words: MTS cytotoxicity assay. The class given is cell-based. The following applies: Homo sapiens, 48 h, triplicate, read-out: IC50 ± SEM HEP3B. The protocol:
as §1
Consider `COc1cc(/C=C/c2cc(O)c(C)c(O)c2)ccc1O` [Compound 3, scillabene A], for which the IC50 came to 82.7 ± 3.9 µM.

As for `COc1c(O)c(OC)c2c(c1O)OC[C@@H](Cc1ccc(O)cc1)C2=O` [Compound 7, 3R-(4′-hydroxybenzyl)-6,8-dihydroxy-5,7-dimethoxy-4-chromanone], the IC50 is more than 100 µM.

Turning to `COc1ccc(C(c2c(O)cc3c(c2O)C(=O)/C(=C/c2ccc(O)cc2)CO3)c2coc3cc(O)cc(O)c3c2=O)cc1` (stereo not drawn) [Compound 9, prosperin B], the IC50 was more than 100 µM.

Regarding `COc1cccc2c1C(=O)c1c(O)c3c(c(O)c1C2=O)C[C@@](O)(C(=O)CO)C[C@@H]3O[C@H]1C[C@H](N)[C@H](O)[C@H](C)O1` [doxorubicin, reference compound], the IC50 was determined as 1.1 ± 0.1 µM.

The same assay, now with this note: Homo sapiens, 48 h, triplicate, read-out: IC50 ± SEM HEP3B, extract/fraction.
As to `COc1cccc2c1C(=O)c1c(O)c3c(c(O)c1C2=O)C[C@@](O)(C(=O)CO)C[C@@H]3O[C@H]1C[C@H](N)[C@H](O)[C@H](C)O1` [doxorubicin, reference compound], the IC50 amounted to 1.1 ± 0.07 µg/mL.

In a further assay the test system is L929 nontumor mouse fibroblast cell line. In words: MTS cytotoxicity assay, nontumor cell line. To be noted: 48 h, triplicate, read-out: IC50 ± SEM L929. The class given is cell-based. The protocol:
as §1
As for `COc1cc(/C=C/c2cc(O)c(C)c(O)c2)ccc1O` [Compound 3, scillabene A], the IC50 was more than 100 µM.

On to `COc1c(O)c(OC)c2c(c1O)OC[C@@H](Cc1ccc(O)cc1)C2=O` [Compound 7, 3R-(4′-hydroxybenzyl)-6,8-dihydroxy-5,7-dimethoxy-4-chromanone], for which the IC50 was more than 100 µM.

Regarding `COc1ccc(C(c2c(O)cc3c(c2O)C(=O)/C(=C/c2ccc(O)cc2)CO3)c2coc3cc(O)cc(O)c3c2=O)cc1` (stereo not drawn) [Compound 9, prosperin B], the IC50 was more than 100 µM.

In the case of `COc1cccc2c1C(=O)c1c(O)c3c(c(O)c1C2=O)C[C@@](O)(C(=O)CO)C[C@@H]3O[C@H]1C[C@H](N)[C@H](O)[C@H](C)O1` [doxorubicin, reference compound], the IC50 is more than 100 µM.

The same assay, now with this note: 48 h, triplicate, read-out: IC50 ± SEM L929, extract/fraction.
Consider `COc1cccc2c1C(=O)c1c(O)c3c(c(O)c1C2=O)C[C@@](O)(C(=O)CO)C[C@@H]3O[C@H]1C[C@H](N)[C@H](O)[C@H](C)O1` [doxorubicin, reference compound], for which the IC50 is more than 100 µg/mL.
